Results reported in patent publication EP0373216A1, “CEPHALOSPORIN COMPOUNDS OR THEIR SALTS, PROCESS FOR THEIR PREPARATION, AND PARMACEUTICAL COMPOSITIONS” (TEIJIN LIMITED, priority 1987, dated 1988).
≈ marks a conversion by molar mass, not a printed value. Like-named read-outs stand apart in the source and are kept apart here.

What was measured:
Assay in all cases: In vitro antibacterial activity, agar disc dilution method
Type in all cases: cell-based
S. marcescens I AM 1184 = conditions: Serratia marcescens, read-out: minimum growth inhibitory concentration (MIC)
Protocol: (§1) An in vitro antibacterial activity was measured by an agar disc dilution method.
(§2) Varied test bacteria were cultivated overnight in triptophane-soybroth. A Mueller Hinton agar containing the compound of this invention in varied concentrations was streaked with one platinum loopful of each of the bacteria (number of living cells 10^6/ml).

P. vulgalis OX-19 = conditions: read-out: minimum growth inhibitory concentration (MIC)
Protocol: as §1, §2

S. aureus Terajima = conditions: Staphylococcus aureus, read-out: minimum growth inhibitory concentration (MIC)
Protocol: as §1, §2

M. euteus ATCC 9341 = conditions: read-out: minimum growth inhibitory concentration (MIC)
Protocol: as §1, §2

B. subtilis ATCC 6633 = conditions: Bacillus subtilis, read-out: minimum growth inhibitory concentration (MIC)
Protocol: as §1, §2

K. pneumoniae PC I 602 = conditions: Klebsiella pneumoniae, read-out: minimum growth inhibitory concentration (MIC)
Protocol: as §1, §2

S. typhic 901 = conditions: Mueller Hinton agar, 10^6/ml, 37°C for 16 hours, read-out: minimum growth inhibitory concentration (MIC)
Protocol: as §1, §2

P. aeruginosa NCTC 1049 = conditions: Pseudomonas aeruginosa, read-out: minimum growth inhibitory concentration (MIC)
Protocol: as §1, §2

S. enteritidis G14 = conditions: Salmonella enterica, read-out: minimum growth inhibitory concentration (MIC)
Protocol: as §1, §2

E. coli K12C600 = conditions: Escherichia coli, read-out: minimum growth inhibitory concentration (MIC)
Protocol: as §1, §2

E. cloacae 963 = conditions: read-out: minimum growth inhibitory concentration (MIC)
Protocol: as §1, §2

S. pyogenes Cook = conditions: Streptococcus pyogenes, read-out: minimum growth inhibitory concentration (MIC)
Protocol: as §1, §2

P. morganii IFO 3445 = conditions: Morganella morganii, read-out: minimum growth inhibitory concentration (MIC)
Protocol: as §1, §2

P. rettgeric IFO3850 = conditions: read-out: minimum growth inhibitory concentration (MIC)
Protocol: as §1, §2

[1] = IAM1184, S. marcescens I AM 1184, Mueller Hinton agar, 10^6/ml, 37°C for 16 hours
[2] = P. vulgalis OX-19, Mueller Hinton agar, 10^6/ml, 37°C for 16 hours
[3] = S. aureus Terajima, Mueller Hinton agar, 10^6/ml, 37°C for 16 hours
[4] = M. euteus ATCC 9341, Mueller Hinton agar, 10^6/ml, 37°C for 16 hours
[5] = ATCC6633, B. subtilis ATCC 6633, Mueller Hinton agar, 10^6/ml, 37°C for 16 hours
[6] = PCI602, K. pneumoniae PC I 602, Mueller Hinton agar, 10^6/ml, 37°C for 16 hours
[7] = NCTC1049, P. aeruginosa NCTC 1049, Mueller Hinton agar, 10^6/ml, 37°C for 16 hours
[8] = S. enteritidis G14, Mueller Hinton agar, 10^6/ml, 37°C for 16 hours
[9] = E. coli K12C600, Mueller Hinton agar, 10^6/ml, 37°C for 16 hours
[10] = Enterobacter cloacae, E. cloacae 963, Mueller Hinton agar, 10^6/ml, 37°C for 16 hours
[11] = S. pyogenes Cook, Mueller Hinton agar, 10^6/ml, 37°C for 16 hours
[12] = IFO3445, P. morganii IFO 3445, Mueller Hinton agar, 10^6/ml, 37°C for 16 hours
[13] = P. rettgeric IFO3850, Mueller Hinton agar, 10^6/ml, 37°C for 16 hours

SMILES | MIC (S. typhic 901) [µg/mL] | MIC (S. marcescens I AM 1184; [1]) [µg/mL] | MIC (P. vulgalis OX-19; [2]) [µg/mL] | MIC (S. aureus Terajima; [3]) [µg/mL] | MIC (M. euteus ATCC 9341; [4]) [µg/mL] | MIC (B. subtilis ATCC 6633; [5]) [µg/mL] | MIC (K. pneumoniae PC I 602; [6]) [µg/mL] | MIC (P. aeruginosa NCTC 1049; [7]) [µg/mL] | MIC (S. enteritidis G14; [8]) [µg/mL] | MIC (E. coli K12C600; [9]) [µg/mL] | MIC (E. cloacae 963; [10]) [µg/mL] | MIC (S. pyogenes Cook; [11]) [µg/mL] | MIC (P. morganii IFO 3445; [12]) [µg/mL] | MIC (P. rettgeric IFO3850; [13]) [µg/mL] | also measured
CC(C)(O/N=C(\C(=O)N[C@@H]1C(=O)N2C(C(=O)[O-])=C(C[n+]3ccccc3)CS[C@H]12)c1csc(N)n1)C(=O)O [CAZ, Ceftazidime, reference compound] | 0.1 (≈ 0.183 µM) |  |  |  |  |  |  |  |  |  |  |  |  |  | MIC (S. marcescens I AM 1184; IAM1184, 16 h): 0.03 µg/mL (≈ 0.0549 µM); MIC (P. vulgalis OX-19; 16 h): 0.01 µg/mL (≈ 0.0183 µM); MIC (S. aureus Terajima; 16 h): 3.1 µg/mL (≈ 5.67 µM); MIC (M. euteus ATCC 9341; 16 h): 1.6 µg/mL (≈ 2.93 µM); MIC (B. subtilis ATCC 6633; ATCC6633, 16 h): 3.1 µg/mL (≈ 5.67 µM); MIC (K. pneumoniae PC I 602; PCI602, 16 h): 0.1 µg/mL (≈ 0.183 µM); MIC (P. aeruginosa NCTC 1049; NCTC1049, 16 h): 0.8 µg/mL (≈ 1.46 µM); MIC (S. enteritidis G14; ENTERITIDIS, 16 h): 0.1 µg/mL (≈ 0.183 µM); MIC (E. coli K12C600; K12C600, 16 h): 0.2 µg/mL (≈ 0.366 µM); MIC (E. cloacae 963; Enterobacter cloacae, 963, 16 h): 0.1 µg/mL (≈ 0.183 µM); MIC (S. pyogenes Cook; 16 h): 1.6 µg/mL (≈ 2.93 µM); MIC (P. morganii IFO 3445; IFO3445, 16 h): 0.01 µg/mL (≈ 0.0183 µM); MIC (P. rettgeric IFO3850; 16 h): 0.01 µg/mL (≈ 0.0183 µM)
CC(C)(O/N=C(\C(=O)N[C@@H]1C(=O)N2C(C(=O)[O-])=C(C[n+]3ccc4cc(O)c(O)cc4c3)CS[C@H]12)c1csc(N)n1)C(=O)O [Compound A, (6R,7R)-7-[(Z)-2-(2-amino-l,3-thiazol-4-yl)-2-(2-carboxypropyl-2-yloxyimino)acetamide]-3-(6,7-dihydroxy-2-isoquinolinium)methyl-3-cephem-4-carboxylate, reference compound] | < 0.01 | < 0.01 | < 0.01 | 6.2 (≈ 9.86 µM) | 0.2 (≈ 0.318 µM) | 0.4 (≈ 0.636 µM) | < 0.01 | 0.02 (≈ 0.0318 µM) | < 0.01 | < 0.01 | < 0.01 | 1.6 (≈ 2.55 µM) | < 0.01 | < 0.01 | 
Nc1nc(/C(=N/Oc2ccccc2)C(=O)N[C@@H]2C(=O)N3C(C(=O)[O-])=C(C[n+]4ccc5cc(O)c(O)cc5c4)CS[C@H]23)cs1 [Compound I, (6R,7R)-7-[(Z)-2-(2-amino-1,3-thiazol-4-yl)-2-phenoxy-iminoacetamide]-3-(6,7-dihydroxy-2-isoquinolinium)methyl-3-cephem-4-carboxylate] | < 0.01 | < 0.01 | < 0.01 | 0.8 (≈ 1.29 µM) | 0.1 (≈ 0.162 µM) | 0.1 (≈ 0.162 µM) | < 0.01 | 0.1 (≈ 0.162 µM) | < 0.01 | < 0.01 | < 0.01 | 0.2 (≈ 0.323 µM) | < 0.01 | < 0.01 | 
Nc1nc(/C(=N/Oc2ccccc2Cl)C(=O)N[C@@H]2C(=O)N3C(C(=O)[O-])=C(C[n+]4ccc5cc(O)c(O)cc5c4)CS[C@H]23)cs1 [Compound II, (6R,7R)-7-[(Z)-2-(2-amino-1,3-thiazol-4-yl)-2-(o-chlorophenoxyimino)-acetamide]-3-(6,7-dihydroxy-2-isoquinolinium)methyl-3-cephem-4-carboxylate] | < 0.01 | < 0.01 | < 0.01 | 0.2 (≈ 0.306 µM) | 0.8 (≈ 1.22 µM) | 1.6 (≈ 2.45 µM) | < 0.01 | 0.8 (≈ 1.22 µM) | < 0.01 | < 0.01 | < 0.01 | 0.2 (≈ 0.306 µM) | < 0.01 | < 0.01 | 
Nc1nc(/C(=N/Oc2ccc(Cl)cc2)C(=O)N[C@@H]2C(=O)N3C(C(=O)[O-])=C(C[n+]4ccc5cc(O)c(O)cc5c4)CS[C@H]23)cs1 [Compound III] | < 0.01 | < 0.01 | < 0.01 | 0.8 (≈ 1.22 µM) | 0.2 (≈ 0.306 µM) | 0.4 (≈ 0.612 µM) | < 0.01 | 0.8 (≈ 1.22 µM) | < 0.01 | < 0.01 | 0.03 (≈ 0.0459 µM) | 0.1 (≈ 0.153 µM) | 0.01 (≈ 0.0153 µM) | < 0.01 | 
Nc1nc(/C(=N/Oc2ccccc2)C(=O)N[C@@H]2C(=O)N3C(C(=O)[O-])=C(C[n+]4cc(C(=O)O)c5cc(O)c(O)cc5c4Cl)CS[C@H]23)cs1 [Compound VII, (6R,7R)-7-[(Z)-2-(2-amino-1,3-thiazol-4-yl)-2-phenoxyiminoacetamide]-3-(l-chloro-4-carboxy-6,7-dihydroxy-2-isoquinolinium)methyl-3-cephem-4-carboxylate] |  | 0.03 (≈ 0.043 µM) | 0.02 (≈ 0.0287 µM) | 3.1 (≈ 4.45 µM) | 0.8 (≈ 1.15 µM) | 1.6 (≈ 2.3 µM) | 0.03 (≈ 0.043 µM) | 1.6 (≈ 2.3 µM) | 0.02 (≈ 0.0287 µM) | 0.03 (≈ 0.043 µM) | 0.1 (≈ 0.143 µM) | 0.4 (≈ 0.574 µM) | 0.03 (≈ 0.043 µM) | 0.03 (≈ 0.043 µM) | 
